# In PubChem BioAssay AID328 (DTP/NCI, 2004):
# Where “and” joins values, the source holds several entries; their conditions need not be identical. Equal entries are not always repeated. Toxic doses and inconclusive results are not listed.
# Tested on: BDF1 mice, P388 leukemia ip, median survival T/C
# Assay: NCI In Vivo Anticancer Drug Screen. Data for tumor model P388 Leukemia (intraperitoneal) in B6D2F1 (BDF1) mice
# Details: endpoint: median survival time, higher = longer survival
# Procedure, shortened: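 Read-out is survival of treated animals expressed relative to the vehicle group, as a T/C ratio.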
# [1] = dose: 100.0 mg/kg/injection, schedule: Q01DX001 (ip), vehicle: saline with Tween-80
compound,measurement,setting,value
CCCC(C(CC)CO)C(CC)C(O)C(CC)CO (stereo unspecified),T/C,"dose: 50.0 mg/kg/injection, schedule: Q01DX005 (ip), vehicle: saline with Tween-80",100 % of control
same,T/C,"dose: 100.0 mg/kg/injection, schedule: Q01DX005 (ip), vehicle: saline with Tween-80",94 % of control
same,T/C,"dose: 200.0 mg/kg/injection, schedule: Q01DX005 (ip), vehicle: saline with Tween-80",99 % of control
COc1ccc(C2=CC(c3ccc4c(c3)OCO4)c3c(c4ccccc4oc3=O)O2)cc1OC (stereo unspecified),T/C,"dose: 12.5 mg/kg/injection, schedule: Q01DX009 (ip), vehicle: water",96 % of control
same,T/C,"dose: 25.0 mg/kg/injection, schedule: Q01DX009 (ip), vehicle: water",106 % of control
same,T/C,"dose: 50.0 mg/kg/injection, schedule: Q01DX009 (ip), vehicle: water",102 % of control
same,T/C,"dose: 50.0 mg/kg/injection, schedule: Q04DX003 (ip), vehicle: water",101 % of control
same,T/C,"dose: 100.0 mg/kg/injection, schedule: Q01DX009 (ip), vehicle: water",93 % of control
same,T/C,"dose: 100.0 mg/kg/injection, schedule: Q04DX003 (ip), vehicle: water",110 % of control
same,T/C,"dose: 200.0 mg/kg/injection, schedule: Q04DX003 (ip), vehicle: water",94 % of control
same,T/C,"dose: 400.0 mg/kg/injection, schedule: Q04DX003 (ip), vehicle: water",94 % of control
CN=S(=O)(OCC1CCC1COS(=O)(=NC)c1ccc(C)cc1)c1ccc(C)cc1 (stereo unspecified),T/C,"dose: 12.5 mg/kg/injection, schedule: Q01DX009 (ip), vehicle: saline with Tween-80",109 % of control
same,T/C,"dose: 12.5 mg/kg/injection, schedule: Q01DX009 (ip), vehicle: saline",93 % of control
same,T/C,"dose: 25.0 mg/kg/injection, schedule: Q01DX009 (ip), vehicle: saline with Tween-80",100 % of control
same,T/C,"dose: 25.0 mg/kg/injection, schedule: Q01DX009 (ip), vehicle: saline",93 % of control
same,T/C,"dose: 50.0 mg/kg/injection, schedule: Q01DX009 (ip), vehicle: saline with Tween-80",90 % of control and 120 % of control
same,T/C,"dose: 50.0 mg/kg/injection, schedule: Q01DX009 (ip), vehicle: saline",90 % of control
same,T/C,"dose: 100.0 mg/kg/injection, schedule: Q01DX009 (ip), vehicle: saline with Tween-80",107 % of control and 114 % of control
same,T/C,"dose: 100.0 mg/kg/injection, schedule: Q01DX009 (ip), vehicle: saline",93 % of control
same,T/C,"dose: 200.0 mg/kg/injection, schedule: Q01DX009 (ip), vehicle: saline with Tween-80",116 % of control
CCCCCCCCCCCCn1c(C)nc2ccccc21,T/C,"dose: 10.0 mg/kg/injection, schedule: Q04DX003 (ip), vehicle: saline",105 % of control
same,T/C,"dose: 20.0 mg/kg/injection, schedule: Q04DX003 (ip), vehicle: saline",120 % of control
same,T/C,"dose: 40.0 mg/kg/injection, schedule: Q04DX003 (ip), vehicle: saline",115 % of control
same,T/C,"dose: 60.0 mg/kg/injection, schedule: Q04DX003 (ip), vehicle: saline",109 % of control
same,T/C,"dose: 90.0 mg/kg/injection, schedule: Q04DX003 (ip), vehicle: saline",104 % of control
same,T/C,"dose: 135.0 mg/kg/injection, schedule: Q04DX003 (ip), vehicle: saline",86 % of control
same,T/C,"dose: 200.0 mg/kg/injection, schedule: Q04DX003 (ip), vehicle: saline",105 % of control
same,T/C,"dose: 305.0 mg/kg/injection, schedule: Q04DX003 (ip), vehicle: saline",110 % of control
COC1=CC(=O)c2c(O)cc(OC)cc2C1=O,T/C,"dose: 1.25 mg/kg/injection, schedule: Q01DX009 (ip), vehicle: saline with Tween-80",120 % of control
same,T/C,"dose: 2.5 mg/kg/injection, schedule: Q01DX009 (ip), vehicle: saline with Tween-80",95 % of control
Clc1nc2nnnn2c2ccccc12,T/C,"dose: 20.0 mg/kg/injection, schedule: Q01DX009 (ip), vehicle: saline",94 % of control
same,T/C,"dose: 40.0 mg/kg/injection, schedule: Q01DX009 (ip), vehicle: saline",95 % of control
C1CC[N-]CC1.C1CC[N-]CC1.[Co].[N-]=C=S.[N-]=C=S,T/C,[1],99 % of control
COc1cccc(CC2=C3CCCN(C(=O)c4ccccc4)C3CCC2=O)c1 (stereo unspecified),T/C,"dose: 100.0 mg/kg/injection, schedule: Q01DX001 (ip), vehicle: saline sonified",90 % of control
same,T/C,"dose: 200.0 mg/kg/injection, schedule: Q01DX001 (ip), vehicle: saline sonified",90 % of control
same,T/C,"dose: 400.0 mg/kg/injection, schedule: Q01DX001 (ip), vehicle: saline sonified",104 % of control
NC(=O)c1c(F)c(F)c(F)c(F)c1F,T/C,[1],107 % of control
same,T/C,"dose: 200.0 mg/kg/injection, schedule: Q01DX001 (ip), vehicle: saline with Tween-80",115 % of control
same,T/C,"dose: 400.0 mg/kg/injection, schedule: Q01DX001 (ip), vehicle: saline with Tween-80",110 % of control
COc1cccc(Sc2ccc([N+](=O)[O-])c3no[n+]([O-])c23)c1,T/C,"dose: 30.0 mg/kg/injection, schedule: Q01DX009 (ip), vehicle: saline with Tween-80",102 % of control
same,T/C,"dose: 60.0 mg/kg/injection, schedule: Q01DX009 (ip), vehicle: saline with Tween-80",115 % of control
CCN(CC)CCOC(=O)C(c1ccccc1)C1(O)CCCC(C)C1 (stereo unspecified),T/C,"dose: 50.0 mg/kg/injection, schedule: Q01DX005 (ip), vehicle: saline",98 % of control
same,T/C,"dose: 100.0 mg/kg/injection, schedule: Q01DX005 (ip), vehicle: saline",90 % of control
same,T/C,"dose: 200.0 mg/kg/injection, schedule: Q01DX005 (ip), vehicle: saline",110 % of control
COC1C(OC(N)=O)C(O)C(Oc2ccc3c(O)c(NC(=O)c4ccc(O)c(CC=C(C)C)c4)c(=O)oc3c2C)OC1(C)C (stereo unspecified),T/C,"dose: 50.0 mg/kg/injection, schedule: Q01DX009 (ip), vehicle: Klucel (hydroxypropylcellulose) (HPC)",121 % of control
same,T/C,"dose: 100.0 mg/kg/injection, schedule: Q01DX009 (ip), vehicle: Klucel (hydroxypropylcellulose) (HPC)",111 % of control
same,T/C,"dose: 200.0 mg/kg/injection, schedule: Q01DX009 (ip), vehicle: Klucel (hydroxypropylcellulose) (HPC)",121 % of control
COc1cc(C=Nc2ccc(Cl)cc2)ccc1N(CCCl)CCCl,T/C,"dose: 2.2 mg/kg/injection, schedule: Q01DX009 (ip), vehicle: other",162 % of control
same,T/C,"dose: 3.3 mg/kg/injection, schedule: Q01DX009 (ip), vehicle: other",150 % of control
same,T/C,"dose: 5.0 mg/kg/injection, schedule: Q01DX009 (ip), vehicle: other",179 % of control
same,T/C,"dose: 7.5 mg/kg/injection, schedule: Q01DX009 (ip), vehicle: other",183 % of control
same,T/C,"dose: 22.0 mg/kg/injection, schedule: Q04DX003 (ip), vehicle: other",245 % of control
same,T/C,"dose: 22.0 mg/kg/injection, schedule: Q04DX003 (ip), vehicle: saline",113 % of control
same,T/C,"dose: 33.0 mg/kg/injection, schedule: Q04DX003 (ip), vehicle: other",272 % of control
same,T/C,"dose: 33.0 mg/kg/injection, schedule: Q04DX003 (ip), vehicle: saline",100 % of control
same,T/C,"dose: 50.0 mg/kg/injection, schedule: Q04DX003 (ip), vehicle: other",186 % of control
same,T/C,"dose: 75.0 mg/kg/injection, schedule: Q04DX003 (ip), vehicle: saline",181 % of control
[O-]/C(CCCl)=N\[n+]1c2c(nc3ccccc31)-c1cccc3cccc-2c13,T/C,"dose: 12.5 mg/kg/injection, schedule: Q01DX001 (ip), vehicle: Klucel (hydroxypropylcellulose) (HPC)",102 % of control
same,T/C,"dose: 25.0 mg/kg/injection, schedule: Q01DX001 (ip), vehicle: Klucel (hydroxypropylcellulose) (HPC)",100 % of control
same,T/C,"dose: 50.0 mg/kg/injection, schedule: Q01DX001 (ip), vehicle: Klucel (hydroxypropylcellulose) (HPC)",102 % of control
CC1(C)COC(C)(C(=O)NN)OC1,T/C,"dose: 100.0 mg/kg/injection, schedule: Q04DX002 (ip), vehicle: saline",104 % of control
same,T/C,"dose: 200.0 mg/kg/injection, schedule: Q04DX002 (ip), vehicle: saline",101 % of control
same,T/C,"dose: 400.0 mg/kg/injection, schedule: Q04DX002 (ip), vehicle: saline",92 % of control
CCCCSc1nc(N)nc2c1ncn2CC(C)CC (stereo unspecified),T/C,"dose: 100.0 mg/kg/injection, schedule: Q04DX003 (ip), vehicle: saline with Tween-80",100 % of control
same,T/C,"dose: 200.0 mg/kg/injection, schedule: Q04DX003 (ip), vehicle: saline with Tween-80",100 % of control
same,T/C,"dose: 400.0 mg/kg/injection, schedule: Q04DX003 (ip), vehicle: saline with Tween-80",100 % of control
